Measured values taken from ChEMBL document CHEMBL1141639, “Synthesis and heme-binding correlation with antimalarial activity of 3,6-bis-(omega-N,N-diethylaminoamyloxy)-4,5-difluoroxanthone” (Bioorg Med Chem, 2008).

Columns and labels:
Plasmodium falciparum [1] = experiment: Antimalarial activity against Plasmodium falciparum D6 in MSF assay; format: functional, organism-based
[2] = Binding affinity to heme in aqueous solution
Plasmodium falciparum [3] = experiment: Antimalarial activity against Plasmodium falciparum W2 in MSF assay; format: functional, organism-based

Row | Compound | IC50 (Plasmodium falciparum [1]) [nM] | Ka [2] | IC50 (Plasmodium falciparum [3]) [nM]
1 | CCN(CC)CCCCCOc1ccc2c(=O)c3ccc(OCCCCCN(CC)CC)cc3oc2c1 | 180 | 8.2 10^5/M | 120
2 | CCN(CC)CCCCCOc1ccc2c(=O)c3ccc(OCCCCCN(CC)CC)c(F)c3oc2c1F | 93 | 0.6 10^5/M | 150
3 | C=CC1CN2CC[C@H]1C[C@H]2[C@H](O)c1ccnc2ccc(OC)cc12 (single isomer, unassigned) [QUININE] | 11 | 0.2 10^5/M | 60
4 | O[C@@H](c1cc(C(F)(F)F)nc2c(C(F)(F)F)cccc12)[C@H]1CCCCN1 [MEFLOQUINE] | 5.9 | 0.1 10^5/M | 0.7
